Laboratory results as given in patent US7868013B2, “Cycloalkyl substituted pyrimidinediamine compounds and their uses” (Rigel Pharmaceuticals, Inc., priority 2004, dated 2011).
Where a name gives a salt, the structure may show the parent alone. Read-outs that look alike come from different tables or passages of the source.

Assays:
A549 (lung carcinoma) = assay: In vitro antiproliferation assay, A549 cells (TABLE 1 6 point assay; TABLE 2); assay type: cell-based
Method: (§1) Certain compounds were tested against other cell types for their ability to inhibit proliferation in standard antiproliferation assays.

[1] = tested on: H1299 (non-small cell lung carcinoma); assay: In vitro antiproliferation assay, H1299 cells (TABLE 1 6 point assay; TABLE 2); assay type: cell-based
Method: as §1

[2] = Homo sapiens, A549, A549 cells, 6 point assay, read-out: A549, 6pt (IC50, inhibition of proliferation)
[3] = Homo sapiens, NCI-H1299, H1299 cells, 6 point assay, read-out: H1299, 6pt (IC50, inhibition of proliferation)
[4] = Homo sapiens, A549, 6 point assay, A549 cells, read-out: IC50, A549 cells
[5] = Homo sapiens, NCI-H1299, 6 point assay, H1299 cells, read-out: IC50, H1299 cells

CCNC(=O)C1C2C=CC(C2)C1Nc1nc(Nc2ccc3c(c2)OCCN3CCN(C)C)ncc1F (racemic) [compound 184, Racemic-(2-exo,3-exo)-N4-[3-N-ethylminocarbonylbicyclo[2.2.1]hept-5-en-2-yl)-5-fluoro-N2-{1-[2-(dimethylamino)ethyl]-3,4-dihydro-4H-benz[1,4]oxazin-6-yl}-2,4-pyrimidinediamine]
IC50 (A549 (lung carcinoma); [2]): ≤ 100 nM | IC50 [1, 3]: ≤ 100 nM

CN1CCN(c2ccc(Nc3ncc(F)c(NC4CCCC4C(N)=O)n3)cc2)CC1 (centres unmarked) [compound 203, N4-(2-Carboxamidocyclopentyl)-5-fluoro-N2-[4-(4-methylpiperazino)phenyl]-2,4-pyrimidinediamine Monohydrochloride Salt]
IC50 (A549 (lung carcinoma); 6 point assay, A549 cells, read-out: IC50, A549 cells): 100 to 1000 nM | IC50 ([1]; 6 point assay, H1299 cells, read-out: IC50, H1299 cells): 100 to 1000 nM

CN1CCC(c2ccc(Nc3ncc(F)c(N[C@H]4[C@@H](C(N)=O)[C@@H]5C=C[C@H]4C5)n3)cc2)CC1 [compound 137, (1R,2R,3S,4S)-N4-(3-aminocarbonylbicyclo[2.2.1]hept-5-en-2-yl)-5-fluoro-N2-[4-(1-methylpiperidin-4-yl)phenyl]-2,4-pyrimidinediamine]
IC50 (A549 (lung carcinoma); [2]): ≤ 100 nM | IC50 [1, 3]: ≤ 100 nM

Cc1cc(Nc2ncc(F)c(NC3C4C=CC(C4)C3C(N)=O)n2)ccc1N1CCCC1 (racemic) [Compound 288, Racemic-(2-exo,3-exo)-N4-(3-aminocarbonylbicyclo[2.2.1]hept-5-en-2-yl)-5-fluoro-N2-[3-methyl-4-(pyrrolidino)phenyl]-2,4-pyrimidinediamine]
IC50 (A549 (lung carcinoma); [4]): 100 to 1000 nM | IC50 [1, 5]: 100 to 1000 nM

CN(C)CCN1CCc2cc(Nc3ncc(F)c(NC4C5C=CC(C5)C4C(N)=O)n3)ccc21 (racemic) [compound 171, Racemic-(2-exo, 3-exo)-N4-(3-aminocarbonylbicyclo[2.2.1]hept-5-en-2-yl)-5-fluoro-N2-[N-(2-dimethylaminoethyl)-2,3-dihydro-indol-5-yl]-2,4-pyrimidinediamine Bis Hydrogen Chloride Salt]
IC50 (A549 (lung carcinoma); [2]): 100 to 1000 nM | IC50 [1, 3]: 100 to 1000 nM

NC(=O)[C@@H]1CCC[C@@H]1Nc1nc(Nc2ccc3c(c2)NCC3)ncc1F (racemic) [compound 156, Racemic-cis-N4-(2-aminocarbonylcyclopent-1-yl)-N2-(2,3-dihydroindol-6-yl)-5-fluoro-2,4-pyrimidinediamine]
IC50 (A549 (lung carcinoma); [2]): 1000 to 10000 nM | IC50 [1, 3]: 1000 to 10000 nM

Cc1cc(Nc2ncc(F)c(N[C@H]3CCC[C@H]3C(N)=O)n2)ccc1N1CC(C)OC(C)C1 (mixture of isomers) [compound 283, Racemic-cis-N4-(2-aminocarbonylcyclopent-1-yl)-N2-[4-(2,6-dimethylmorpholino)-3-methyl]phenyl-5-fluoro-2,4-pyrimidinediamine]
IC50 (A549 (lung carcinoma); [4]): 100 to 1000 nM | IC50 [1, 5]: 100 to 1000 nM

CN1CCN(c2ccc(Nc3ncc(F)c(NC4C5C=CC(C5)C4C(N)=O)n3)cc2CO)CC1 (racemic) [compound 236, Racemic-(2-exo,3-exo)-N4-(3-aminocarbonylbicyclo[2.2.1]hept-5-en-2-yl)-5-fluoro-N2-[3-hydroxymethyl-4-(4-methylpiperazin-1-yl)phenyl]-2,4-pyrimidinediamine]
IC50 (A549 (lung carcinoma); [4]): ≤ 100 nM | IC50 [1, 5]: ≤ 100 nM

CN(C)CCn1ccc2ccc(Nc3ncc(F)c(NC4C5CCC(C5)C4C(=O)NC4CC4)n3)cc21 (racemic) [compound 179, Racemic-(2-exo,3-exo)-N4-[3-cyclopropylaminocarbonylbicyclo[2.2.1]hept-2-yl)-N2-[1-(2-dimethylaminoethyl)indol-6-yl]-5-fluoro-2,4-pyrimidinediamine]
IC50 (A549 (lung carcinoma); [2]): 100 to 1000 nM | IC50 [1, 3]: 100 to 1000 nM

Cc1ccc(Nc2ncc(F)c(N[C@H]3[C@@H](C(N)=O)[C@@H]4C=C[C@H]3C4)n2)cc1OCCN1CCOCC1 [compound 115, (1R,2R,3S,4S)-N4-(3-Aminocarbonylbicyclo[2.2.1]hept-5-en-2-yl)-5-fluoro-N2-[4-methyl-3-(2-morpholinoethyloxy)phenyl]-2,4-pyrimidinediamine]
IC50 (A549 (lung carcinoma); [2]): ≤ 100 nM | IC50 [1, 3]: ≤ 100 nM

COc1cc(Nc2ncc(F)c(NC3C4C=CC(C4)C3C(N)=O)n2)ccc1S(N)(=O)=O (racemic) [compound 133, Racemic-(2-exo,3-exo)-N4-(3-aminocarbonylbicyclo[2.2.1]hept-5-en-2-yl)-N2-(4-aminosulfonyl-3-methoxyphenyl)-5-fluoro-2,4-pyrimidinediamine]
IC50 (A549 (lung carcinoma); [2]): 1000 to 10000 nM | IC50 [1, 3]: 1000 to 10000 nM

Cc1cc(Nc2ncc(F)c(NC3(C(=O)NC4CC4)CC=CC3)n2)ccc1N1CCN(C)CC1 [compound 244, N4-(1-Cyclopropylaminocarbonylcyclopent-3-en-1-yl)-5-fluoro-N2-[3-methyl-4-(4-methylpiperazin-1-yl)phenyl]-2,4-pyrimidinediamine]
IC50 (A549 (lung carcinoma); [4]): > 10000 nM | IC50 [1, 5]: > 10000 nM

Cc1cc(Nc2ncc(F)c(NC3(C(=O)O)CCCC3)n2)ccc1N1CCN(C)CC1 [compound 246, N4-(1-Carboxycyclopent-1-yl)-5-fluoro-N2-[3-methyl-4-(4-methylpiperazin-1-yl)phenyl]-2,4-pyrimidinediamine]
IC50 (A549 (lung carcinoma); [4]): > 10000 nM | IC50 [1, 5]: > 10000 nM

Cc1cc(Nc2ncc(F)c(N[C@H]3CCC[C@@H]3C(N)=O)n2)ccc1N1CCN(C)CC1 [15d, (1S,2S)—N4-(2-Aminocarbonylcyclopent-1-yl)-5-fluoro-N2-[4-(4-methylpiperazin-1-yl)-3-methylphenyl]-2,4-pyrimidinediamine]
IC50 (A549 (lung carcinoma); [4]): > 10000 nM | IC50 [1, 5]: > 10000 nM

COC(=O)[C@@H]1CCC[C@@H]1Nc1nc(Nc2ccc(N3CCN(C)CC3)c(C)c2)ncc1F (racemic) [compound 218, Racemic-cis-5-fluoro-N2-[3-methyl-4-(4-methylpiperazin-1-yl)phenyl]-N4-(2-methoxycarbonylcyclopent-1-yl)-2,4-pyrimidinediamine]
IC50 (A549 (lung carcinoma); [4]): 1000 to 10000 nM | IC50 [1, 5]: 1000 to 10000 nM

Cc1ccc(Nc2ncc(F)c(N[C@H]3CCC[C@H]3C(N)=O)n2)cc1OCC(=O)N1CCN(C)CC1 (racemic) [compound 102, Racemic-cis-N4-(2-aminocarbonylcyclopent-1-yl)-5-fluoro-N2-[4-methyl-3-(4-methylpiperazin-1-yl)carbonylmethyleneoxyphenyl]-2,4-pyrimidinediamine]
IC50 (A549 (lung carcinoma); [2]): 1000 to 10000 nM | IC50 [1, 3]: 1000 to 10000 nM

CN1CCN(c2ccc(Nc3ncc(F)c(NC4C5C=CC(C5)C4C(N)=O)n3)cc2F)CC1 (racemic) [compound 239, Racemic-(2-exo,3-exo)-N4-(3-aminocarbonylbicyclo[2.2.1]hept-5-en-2-yl)-5-fluoro-N2-[3-fluoro-4-(4-methylpiperazin-1-yl)phenyl]-2,4-pyrimidinediamine]
IC50 (A549 (lung carcinoma); [4]): ≤ 100 nM | IC50 [1, 5]: ≤ 100 nM

Cc1cc(Nc2ncc(F)c(N[C@H]3CCC[C@H]3C(N)=O)n2)ccc1N1CCCC1 (racemic) [Compound 287, Racemic-cis-N4-(2-aminocarbonylcyclopent-1-yl)-5-fluoro-N2-[3-methyl-4-(pyrrolidino)phenyl]-2,4-pyrimidinediamine]
IC50 (A549 (lung carcinoma); [4]): 1000 to 10000 nM | IC50 [1, 5]: 1000 to 10000 nM

CNC(=O)c1cc(Nc2ncc(F)c(NC3C4C=CC(C4)C3C(N)=O)n2)ccc1N1CCN(C)CC1 (racemic) [compound 255, Racemic-(2-exo,3-exo)-N4-(3-aminocarbonylbicyclo[2.2.1]hept-5-en-2-yl)-5-fluoro-N2-[3-methylaminocarbonyl-4-(4-methylpiperazin-1-yl)phenyl]-2,4-pyrimidinediamine]
IC50 (A549 (lung carcinoma); [4]): 100 to 1000 nM | IC50 [1, 5]: 100 to 1000 nM

Cc1cc(Nc2ncc(F)c(N[C@H]3C=C[C@@H](C(N)=O)C3)n2)ccc1N1CCN(C)CC1 [compound 226, (1R,4S)-cis-N4-(4-Aminocarbonylcyclopent-2-ene-1-yl)-5-fluoro-N2-[3-methyl-4-(4-methylpiperazin-1-yl)phenyl]-2,4-pyrimidinediamine]
IC50 (A549 (lung carcinoma); [4]): 1000 to 10000 nM | IC50 [1, 5]: 1000 to 10000 nM

CN(C)CCN1CCc2cc(Nc3ncc(F)c(NC4C5C=CC(C5)C4C(=O)NC4CCC4)n3)ccc21 (racemic) [compound 176, Racemic-(2-exo,3-exo)-N4-[3-cyclobutylaminocarbonylbicyclo[2.2.1]hept-5-en-2-yl)-N2-[1-(2-dimethylaminoethyl)-2,3-dihydroindol-5-yl]-5-fluoro-2,4-pyrimidinediamine]
IC50 (A549 (lung carcinoma); [2]): ≤ 100 nM | IC50 [1, 3]: ≤ 100 nM

Cc1cc(Nc2ncc(F)c(N[C@H]3CCC[C@@H]3C(=O)O)n2)ccc1N1CCN(C)CC1 [compound 209, (1S,2S)-5-fluoro-N4-(2-hydroxycarbonylcyclopent-1-yl)-N2-[3-methyl-4-(4-methylpiperazino)phenyl]-2,4-pyrimidinediamine]
IC50 (A549 (lung carcinoma); [4]): > 10000 nM | IC50 [1, 5]: > 10000 nM

Cc1cc(Nc2ncc(F)c(N[C@@H]3CCC[C@H]3C(N)=O)n2)ccc1N1CCN(C)CC1 [15c, (1R,2R)—N4-(2-Aminocarbonylcyclopent-1-yl)-5-fluoro-N2-[4-(4-methylpiperazin-1-yl)-3-methylphenyl]-2,4-pyrimidinediamine]
IC50 (A549 (lung carcinoma); [4]): 1000 to 10000 nM | IC50 [1, 5]: 1000 to 10000 nM

CNC(=O)COc1cc(Nc2ncc(F)c(N[C@H]3CCC[C@H]3C(N)=O)n2)ccc1C (racemic) [compound 106, Racemic-cis-N4-(2-aminocarbonylcyclopent-1-yl)-5-fluoro-N2-[4-methyl-3-(N-methylamino)carbonylmethyleneoxyphenyl]-2,4-pyrimidinediamine]
IC50 (A549 (lung carcinoma); [2]): 1000 to 10000 nM | IC50 [1, 3]: 1000 to 10000 nM

Cc1cc(Nc2ncc(F)c(N[C@H]3[C@@H](C(N)=O)[C@@H]4C=C[C@H]3C4)n2)ccc1N1CCN(C)CC1 [compound 122, (1R,2R,3S,4S)-N4-(3-Aminocarbonylbicyclo[2.2.1]hept-5-en-2-yl)-5-fluoro-N2-[3-methyl-4-(4-methylpiperazin-1-yl)phenyl]-2,4-pyrimidinediamine Tartaric Acid Salt]
IC50 (A549 (lung carcinoma); [2]): ≤ 100 nM | IC50 [1, 3]: ≤ 100 nM
